Assay results taken from the supplement of paper PMC10307832.

Assays:
Assay in all cases: relative viability (nuclei count vs DMSO), 5 days (fraction); higher = more cells survive
[1] = compound: CC1=C(CC(=O)O)c2cc(F)ccc2/C1=C\c1ccc([S+](C)[O-])cc1 [Sulindac] + CCNC(=O)c1noc(-c2cc(C(C)C)c(O)cc2O)c1-c1ccc(CN2CCOCC2)cc1 [Luminespib] (partner 0.01 µM)
How it was run: (§1)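 For relative viability, nuclei counts in treated wells were divided by those in vehicle wells. Lung cancer cell lines had been pin-tool dosed in 1536-well plates the day after seeding and cultured for 5 days, then fixed and stained in one step (final 0.05% Triton X-100, 1% formaldehyde, 1 ug/ml Hoechst) and imaged at 4×. Doses were one drug alone or a fixed anchor-drug dose plus five library-drug doses (not always all listed) in √10 steps, and values are duplicate-plate medians.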

[2] = compound: CN[C@@H]1C[C@H]2O[C@@](C)([C@@H]1OC)n1c3ccccc3c3c4c(c5c6ccccc6n2c5c31)C(=O)NC4 [Staurosporine] + Cc1cc(Nc2cc(N3CCN(C)CC3)nc(Sc3ccc(NC(=O)C4CC4)cc3)n2)n[nH]1 [Tozasertib] (partner 0.1 µM)
How it was run: as §1

[3] = compound: CN[C@@H]1C[C@H]2O[C@@](C)([C@@H]1OC)n1c3ccccc3c3c4c(c5c6ccccc6n2c5c31)C(=O)NC4 [Staurosporine] + N=C(N)NC(=N)NCCc1ccccc1 [Phenformin] (partner 250 µM)
How it was run: as §1

[4] = compound: CN[C@@H]1C[C@H]2O[C@@](C)([C@@H]1OC)n1c3ccccc3c3c4c(c5c6ccccc6n2c5c31)C(=O)NC4 [Staurosporine] + NC(=O)Nc1cc(-c2cccc(F)c2)sc1C(=O)N[C@H]1CCCNC1 [AZD7762] (partner 0.2 µM)
How it was run: as §1

| Cell Line | relative viability ([1]; first compound 0.08 µM) | relative viability ([1]; first compound 0.253 µM) | relative viability ([1]; first compound 2.53 µM) | relative viability ([1]; first compound 8 µM) | relative viability ([2]; first compound 0.005 µM) | relative viability ([2]; first compound 0.01581 µM) | relative viability ([2]; first compound 0.05 µM) | relative viability ([2]; first compound 0.1581 µM) | relative viability ([2]; first compound 0.5 µM) | relative viability ([3]; first compound 0.005 µM) | relative viability ([3]; first compound 0.01581 µM) | relative viability ([3]; first compound 0.05 µM) | relative viability ([3]; first compound 0.1581 µM) | relative viability ([3]; first compound 0.5 µM) | relative viability ([4]; first compound 0.005 µM) | relative viability ([4]; first compound 0.01581 µM) | relative viability ([4]; first compound 0.05 µM) | relative viability ([4]; first compound 0.1581 µM) | relative viability ([4]; first compound 0.5 µM) | relative viability ([1]; first compound 0.8 µM) |
| --- | --- | --- | --- | --- | --- | --- | --- | --- | --- | --- | --- | --- | --- | --- | --- | --- | --- | --- | --- | --- |
| NCI-H1651 | 1.08 | 0.897 | 0.8 | 0.948 | 0.66 | 0.675 | 0.371 | 0.237 | 0.185 | 0.293 | 0.155 | 0.16 | 0.0842 | 0.0807 | 0.522 | 0.352 | 0.295 | 0.219 | 0.195 |  |
| NCI-H1666 | 1.04 | 1.03 | 1 | 1.1 | 0.544 | 0.44 | 0.402 | 0.355 | 0.257 | 0.495 | 0.567 | 0.518 | 0.262 | 0.201 | 0.701 | 0.51 | 0.524 | 0.404 | 0.32 | 0.955 |
| NCI-H1734 | 0.146 | 0.186 | 0.203 | 0.23 | 0.314 | 0.206 | 0.191 | 0.132 | 0.0956 | 0.348 | 0.179 | 0.153 | 0.116 | 0.107 | 0.539 | 0.242 | 0.194 | 0.0987 | 0.0915 |  |
| NCI-H1755 | 0.546 | 0.829 | 0.536 | 0.486 | 0.474 | 0.311 | 0.207 | 0.184 | 0.219 | 0.384 | 0.24 | 0.196 | 0.195 | 0.161 | 0.318 | 0.228 | 0.214 | 0.224 | 0.224 | 0.399 |
| NCI-H1793 | 0.188 | 0.168 | 0.169 | 0.265 | 0.335 |  | 0.299 | 0.182 | 0.186 | 0.453 |  | 0.357 |  | 0.129 | 0.352 |  | 0.143 | 0.186 | 0.145 | 0.163 |
| NCI-H1915 | 1.07 | 0.883 | 0.909 | 0.813 | 0.45 | 0.229 | 0.217 | 0.108 | 0.154 | 0.332 | 0.087 | 0.181 | 0.0813 | 0.0841 | 0.707 | 0.495 | 0.346 | 0.21 | 0.09 |  |
| NCI-H1944 | 0.753 | 0.838 | 0.864 | 0.963 | 0.255 | 0.21 | 0.206 | 0.161 | 0.155 | 0.19 | 0.11 | 0.141 | 0.102 | 0.0775 | 0.349 | 0.25 | 0.275 | 0.177 | 0.192 | 0.706 |
| NCI-H1975 | 0.189 | 0.205 | 0.174 | 0.267 | 0.363 | 0.205 | 0.128 | 0.0804 | 0.0788 | 0.208 | 0.135 | 0.136 | 0.103 | 0.0912 | 0.536 | 0.402 | 0.357 | 0.261 | 0.182 | 0.159 |
| NCI-H1993 | 0.718 | 0.774 | 0.961 | 0.988 | 0.639 | 0.535 | 0.434 | 0.491 | 0.429 | 0.507 | 0.408 | 0.463 | 0.455 | 0.421 | 0.676 | 0.39 | 0.407 | 0.331 | 0.296 | 0.645 |
| NCI-H2085 | 0.39 | 0.414 | 0.428 | 0.36 | 0.721 | 0.32 | 0.355 | 0.24 |  |  | 0.197 | 0.312 | 0.151 | 0.174 | 0.751 | 0.42 | 0.47 | 0.245 | 0.276 | 0.426 |
| NCI-H2087 | 0.196 | 0.164 | 0.148 | 0.167 | 0.189 | 0.206 | 0.102 | 0.0977 | 0.0926 | 0.364 | 0.214 | 0.14 | 0.0795 | 0.0731 | 1.3 |  | 0.681 | 0.207 | 0.0787 |  |
| NCI-H2126 | 0.963 | 0.804 | 0.991 | 0.955 | 0.658 | 0.494 | 0.348 | 0.247 | 0.226 | 0.483 | 0.245 | 0.336 | 0.237 | 0.245 | 0.914 | 0.622 | 0.673 | 0.268 | 0.27 | 0.888 |
| NCI-H2170 | 0.782 | 0.755 | 0.671 | 0.627 | 0.756 |  | 0.429 | 0.181 | 0.181 | 0.364 |  | 0.354 | 0.14 | 0.157 | 1.05 |  | 0.43 | 0.0989 | 0.15 | 0.941 |
| NCI-H2342 | 0.636 | 0.767 | 0.761 | 0.821 | 0.406 | 0.495 | 0.295 | 0.305 | 0.278 | 0.686 |  | 0.427 | 0.301 | 0.281 | 0.642 | 0.412 | 0.373 | 0.335 | 0.328 | 0.7 |
| NCI-H2347 | 0.302 | 0.478 | 0.411 | 0.519 | 0.514 | 0.357 | 0.196 | 0.268 | 0.219 | 0.269 | 0.253 | 0.201 | 0.216 | 0.165 | 0.459 | 0.264 | 0.374 |  | 0.224 |  |
| NCI-H2405 | 0.455 | 0.647 | 0.752 | 0.754 | 0.586 | 0.256 | 0.0844 | 0.0771 | 0.0789 | 0.326 | 0.162 | 0.117 | 0.0864 | 0.0856 | 0.239 | 0.141 | 0.112 |  | 0.0865 | 0.686 |
| NCI-H3122 | 0.136 | 0.0774 | 0.0935 | 0.105 | 0.441 |  | 0.246 | 0.134 | 0.0837 | 0.283 |  | 0.335 | 0.12 | 0.0915 |  |  | 0.678 |  | 0.192 | 0.0891 |
